Laboratory results as given in patent US20230025435A1, “COMPOSITIONS AND METHODS FOR INCREASING CELLULAR VITALITY AND LONGEVITY AND DECREASING MOLECULAR AGEING” (JUVN3 Holdings, LLC, priority 2020, published 2023).

Legend:
Assay type in all cases: cell-based
[1] = tested on: C2C12 cells; experiment: Cellular oxidative stress (4HNE assay) in C2C12 cells with H2O2 (FIG. 6C); conditions: 24 hours with concomitant 400 uM H2O2, BHB 30 ug/mL
Description: (§1) Treatments and cells. 6-hour and 24-hour cell culture treatments were with one of the following compounds: 1. Control or “vehicle” (DMSO+phosphate-buffered saline only); 2. Niagen® (nicotinamide riboside (NR)(5 μg/mL); 3. BHB (beta hydroxybutyrate) (30 ug/mL); 4. CBD (cannabidiol) (5 ug/mL); 5. Olive leaf (5 ug/mL); 6. Dynamine (1 ug/mL); 7. Selenium (2 ug/mL); 8. Tributyrin (5 ug/mL)
(§2) Treatment materials and methods. C2C12 cells were treated with compounds 1-8 as listed above for 6 hours without hydrogen peroxide (H2O2) (termed “unperturbed cells” throughout); or cells were treated with compounds 1-8 above for 24 hours with a concomitant 400 uM hydrogen peroxide (H2O2).
Oxidative stress was assessed using the 4HNE assay which is a product of cellular lipid oxidation (see e.g., Am J Physiol Cell Physiol. 2016 Oct. 1; 311(4): C537-C543).

[2] = tested on: C2C12 cells; experiment: Autophagy flux (LC3II/I ratio) in C2C12 cells co-incubated with H2O2 (FIG. 6A); conditions: 24 hours with concomitant 400 uM H2O2, BHB 30 ug/mL, CBD 5 ug/mL, selenium 2 ug/mL
Description: as §1, §2
The C2C12 line resembles mature muscle cells given that they are multinucleated and are past the rapid growth/proliferation phase.
Autophagy flux (or activity) was assessed by assaying the LC3II/I ratio. This assay has been deemed the “gold standard” in autophagy monitoring (see e.g., Autophagy, 2007 November-December; 3(6):542-5).

[3] = tested on: C2C12 cells; experiment: Total antioxidant capacity (Trolox equivalent antioxidant capacity, TEAC) in C2C12 cells with H2O2 (FIG. 5B); conditions: 24 hours with concomitant 400 uM H2O2, selenium 2 ug/mL, tributyrin 5 ug/mL
Description: Treatments and cells. 6-hour and 24-hour cell culture treatments were with one of the following compounds: 1. Control or “vehicle” (DMSO+phosphate-buffered saline only); 2. […]® (nicotinamide riboside (NR)(5 μg/mL); 3. BHB (beta hydroxybutyrate) (30 ug/mL); 4. CBD (cannabidiol) (5 ug/mL); 5. Olive leaf (5 ug/mL); 6. Dynamine (1 ug/mL); 7. […] Tributyrin (5 ug/mL) Treatment materials and methods. C2C12 cells were treated with compounds 1-8 as listed above for 6 hours without hydrogen peroxide (H2O2) (termed “unperturbed cells” throughout); or cells were treated with compounds 1-8 above for 24 hours with a concomitant 400 uM hydrogen peroxide (H2O2). Total antioxidant capacity was assessed using a Trolox equivalent antioxidant capacity (TEAC) assay.

Question: Which “cellular oxidative stress (4HNE)” value [1] does the source give for `CC(O)CC(=O)O` (stereo not drawn) [BHB, beta hydroxybutyrate] here?
Answer: decrease cellular oxidative stress

Question: What about the “autophagy (LC3II/I ratio)” value [2] of the same molecule?
Answer: increased autophagy

Question: For `C=C(C)[C@@H]1CCC(C)=C[C@H]1c1c(O)cc(CCCCC)cc1O` [CBD, cannabidiol], which “autophagy (LC3II/I ratio)” value [2] is on record?
Answer: increased autophagy

Question: Which results are given for `[Se]` [selenium, Selenium]?
Answer: total antioxidant capacity (Trolox) [3]: increase (e.g., restore) total antioxidant activity; total antioxidant capacity (Trolox) ([3]; listed as Selenium): increase or restore antioxidant capacity; autophagy (LC3II/I ratio) [2]: increased autophagy

Question: How did the “total antioxidant capacity (Trolox)” value [3] turn out when `CCCC(=O)OCC(COC(=O)CCC)OC(=O)CCC` [tributyrin, Tributyrin] was run?
Answer: increase (e.g., restore) total antioxidant activity

Question: What about the “total antioxidant capacity (Trolox)” value ([3]; listed as Tributyrin) of the same molecule?
Answer: increase or restore antioxidant capacity
